According to the supplement of paper PMC4862054:

Key:
Assay in all cases: normalised viability (% of control), CellTiter-Blue; higher = more viable cells (about 100 = DMSO control)
Conditions in all cases: incubation time: 72 h
[1] = tested on: MFM-223
Outline: (§1)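 Compound dissolved in 5 µl medium was pre-loaded into 384-well plates, and breast cancer cell lines in 20 µl suspension were seeded on top and incubated 72 h. After adding 2.5 µl CellTiter-Blue reagent for 2 h at 37 °C, fluorescence was read at 560/590 nm. Plates were normalised to vehicle (100) and a positive kill control (0), with Z'-factor quality control. Each value is normalised viability at a single listed concentration from the series.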

[2] = tested on: HCC1599
Outline: as §1

[3] = tested on: HDQ-P1
Outline: as §1

[4] = tested on: BT-474
Outline: as §1

[5] = tested on: Hs578T
Outline: as §1

[6] = tested on: MDA-MB-436
Outline: as §1

[7] = tested on: BT-549
Outline: as §1

[8] = tested on: CAL-51
Outline: as §1

[9] = tested on: HCC1143
Outline: as §1

[10] = tested on: SK-BR-3
Outline: as §1

[11] = tested on: CAL-148
Outline: as §1

[12] = tested on: DU-4475
Outline: as §1

[13] = tested on: HCC1937
Outline: as §1

[14] = tested on: MDA-MB-453
Outline: as §1

[15] = tested on: MDA-MB-231
Outline: as §1

[16] = tested on: CAL-85-1
Outline: as §1

[17] = tested on: MDA-MB-468
Outline: as §1

COc1ccc(S(=O)(=O)Nc2cccnc2Nc2ccc(O)cc2)cc1 [ABT-751]
normalised viability [%]
Conditions	3 nM	10 nM	30 nM	100 nM	1000 nM	10000 nM
[1]	–	94.7	–	–	62.6	25.4
[2]	–	112	–	–	85.6	40.4
[3]	91.2	–	102	107	–	–
[4]	–	112	–	–	60.7	54
[5]	–	98.9	–	–	16.6	14.4
[6]	–	86	–	–	48.3	21.4
[7]	–	94.1	–	–	77.2	13.6
[8]	114	–	107	107	–	–
[9]	–	83.8	–	–	56.1	29.1
[10]	–	93.3	–	–	16.9	15.6
[11]	91.9	–	89.2	86.7	–	–
[12]	88.8	–	95.2	89.9	–	–
[13]	–	86.8	–	–	24.7	14
[14]	105	–	81.8	67.9	–	–
[15]	–	89.3	–	–	28.8	14.7
[16]	94.1	–	86.2	88.9	–	–
[17]	–	105	–	–	55.9	34.7

Cc1cc(Nc2nc(N[C@@H](C)c3ncc(F)cn3)ncc2Cl)[nH]n1 [AZD1480]
normalised viability [%]
Conditions	0.3 nM	1 nM	3 nM	10 nM	100 nM	1000 nM
[1]	–	92.1	–	–	60.8	46.2
[2]	–	96	–	–	96.6	74.6
[3]	106	–	108	107	–	–
[4]	–	137	–	–	108	112
[5]	–	145	–	–	102	80.4
[6]	–	109	–	–	96.4	125
[7]	–	91.7	–	–	108	90.4
[8]	115	–	114	110	–	–
[9]	–	96	–	–	102	71.8
[10]	–	108	–	–	126	102
[11]	93.8	–	97.4	99.3	–	–
[12]	102	–	104	95.8	–	–
[13]	–	112	–	–	83.9	83.4
[14]	120	–	95.6	110	–	–
[15]	–	107	–	–	95.5	85.7
[16]	102	–	91.4	96.4	–	–
[17]	–	109	–	–	103	84.9

CNC(=O)c1ccccc1Sc1ccc2c(/C=C/c3ccccn3)n[nH]c2c1 [Axitinib]
normalised viability [%]
Conditions	3 nM	10 nM	30 nM	100 nM	1000 nM	10000 nM
[1]	–	86.7	–	–	47.6	47.7
[2]	–	105	–	–	84.8	62
[3]	101	–	106	92.1	–	–
[4]	–	112	–	–	105	76.4
[5]	–	92.1	–	–	93	54.2
[6]	–	103	–	–	21.7	46
[7]	–	96.6	–	–	92.6	42.5
[8]	107	–	102	98.2	–	–
[9]	–	89.9	–	–	96.2	57.2
[10]	–	91	–	–	88.9	63.8
[11]	83	–	95.3	90.1	–	–
[12]	107	–	114	97	–	–
[13]	–	41.1	–	–	81.8	42.6
[14]	103	–	108	97.2	–	–
[15]	–	102	–	–	88.7	72.1
[16]	93	–	84	104	–	–
[17]	–	108	–	–	99.4	43.8

CC(O)(CS(=O)(=O)c1ccc(F)cc1)C(=O)Nc1ccc(C#N)c(C(F)(F)F)c1 (centres undefined) [Bicalutamide]
normalised viability [%]
Conditions	3 nM	10 nM	30 nM	100 nM	1000 nM	10000 nM
[1]	–	89.2	–	–	91.8	94
[2]	–	98.3	–	–	93.6	109
[3]	86.9	–	110	118	–	–
[4]	–	119	–	–	109	138
[5]	–	108	–	–	112	113
[6]	–	90	–	–	96.2	96.7
[7]	–	87	–	–	94.3	87.2
[8]	116	–	109	99.1	–	–
[9]	–	94.8	–	–	105	92.7
[10]	–	104	–	–	107	114
[11]	101	–	100	102	–	–
[12]	92.2	–	88.8	99.1	–	–
[13]	–	101	–	–	107	78.5
[14]	114	–	89.2	95.9	–	–
[15]	–	103	–	–	122	122
[16]	93.7	–	97.3	104	–	–
[17]	–	118	–	–	93.9	91.3
